The values that follow come from PMC7764985 (2020).

Structures are written as SMILES.

The test system of assay [1] is FB1_10 (DNA, aptamer) AGCAGCACAGAGGTCAGATGCGATCTGGATATTATTTTTGATACCCCTTTGGGGAGACATCCTATGCGTGCTACCGTGAA
The assay is described as follows: magnetic beads assay, fluorescence. The settings on record: 100 mM NaCl, 2 mM MgCl2, 5 mM KCl, 1 mM CaCl2; immobilised compound; 20 mM Tris-HCl, 0.02% Tween 20, pH 7.4, room temperature; aptamer up to 2000 nM.

Assay [2] deals with FB1_39t3 (DNA, aptamer) ATACCAGCTTATTCAATTAATCGCATTACCTTATACCAGCTTATTCAATTACGTCTGCACATACCAGCTTATTCAATT
The assay can be described thus: magnetic beads assay, fluorescence. The following applies: 100 mM NaCl, 2 mM MgCl2, 5 mM KCl, 1 mM CaCl2; immobilised compound; 20 mM Tris, pH 7.6, room temperature; aptamer up to 2000 nM.

For assay [3] the test system is unchanged. The assay is described as follows: microscale thermophoresis. The following applies: 100 mM NaCl, 2 mM MgCl2, 5 mM KCl, 1 mM CaCl2; 20 mM Tris, pH 7.6, 25 °C; 5 nM aptamer.
Assay [4] concerns FB1_10 (DNA, aptamer) AGCAGCACAGAGGTCAGATGCGATCTGGATATTATTTTTGATACCCCTTTGGGGAGACATCCTATGCGTGCTACCGTGAA
The assay is described as follows: microscale thermophoresis. The settings on record: 100 mM NaCl, 2 mM MgCl2, 5 mM KCl, 1 mM CaCl2; 20 mM Tris-HCl, 0.02% Tween 20, pH 7.4, 25 °C; 5 nM aptamer.

The subject of assay [5] is FB1_39 (DNA, aptamer) ATACCAGCTTATTCAATTAATCGCATTACCTTATACCAGCTTATTCAATTACGTCTGCACATACCAGCTTATTCAATTAGATAGTAAGTGCAATCT
The assay is described as follows: magnetic beads assay, fluorescence. The settings on record: 100 mM NaCl, 2 mM MgCl2, 5 mM KCl, 1 mM CaCl2; immobilised compound; 20 mM Tris, pH 7.6, room temperature; aptamer 0.5-100 nM.

For assay [6] the test system is unchanged. The assay is described as follows: microscale thermophoresis. The settings on record: 100 mM NaCl, 2 mM MgCl2, 5 mM KCl, 1 mM CaCl2; 20 mM Tris, pH 7.6, 25 °C; 5 nM aptamer.

Take `CCCC[C@@H](C)[C@@H](OC(=O)C[C@@H](CC(=O)O)C(=O)O)[C@H](C[C@@H](C)C[C@H](O)CCCC[C@@H](O)C[C@H](O)[C@H](C)N)OC(=O)C[C@@H](CC(=O)O)C(=O)O`: the binding entry in assay [1] and in assay [2] was “no” in each case. In addition, the dissociation constant KD in assay [3] was 2200 ± 1100 nM; in assay [4] it was 162 ± 137 nM; in assay [5] it was 1.53 ± 0.67 nM; in assay [6], 31 ± 22 nM.
